Patent US20200000772A1, “CENICRIVIROC COMBINATION THERAPY FOR THE TREATMENT OF FIBROSIS” (Tobira Therapeutics, Inc., priority 2014, published 2020)
Structures can show the parent of a compound that is named as a salt.

How the values were obtained:
[1] = tested on: adults with CCR5 tropic HIV-1; assay: Study 202 post-hoc APRI and FIB-4 fibrosis index scores; assay type: in vivo, human
Method: APRI and FIB-4 scores were calculated. Change in score category from baseline (BL) to Weeks 24 and 48 was assessed in patients with non-missing data. Correlations between changes from BL in APRI and FIB-4 scores, and MCP-1 (CCR2 ligand) and sCD14 (inflammatory biomarker) levels were evaluated.

[2] = tested on: HIV-1 infected adult subjects; assay: Study 202 biomarkers of inflammation; assay type: in vivo, human
Method: As an exploratory analysis, levels of inflammation biomarkers MCP-1, sCD14, high sensitivity C-reactive protein [hs-CRP], interleukin-6 [IL-6], D-dimer, and fibrinogen) were measured. Baseline values and changes from baseline at Week 24 and Week 48 of MCP-1, sCD14, hs-CRP, IL-6, D-dimer, and fibrinogen are summarized in Table 22.
The sCD14 samples were originally analyzed in 2 separate batches: Batch 1 included samples leading up to the Week 24 primary analysis and Batch 2 included Week 32 and Week 48 (end of study) samples. A repeat analysis of archived samples all analyzed in one batch was conducted for consistency in analysis across time points. To control for the effects of covariates, a linear mixed-model repeated-measures analysis was conducted on the changes from baseline in sCD14 (analysis dated September 2013).

[3] = Phase 1 CVC and pioglitazone co-administration PK and safety study; assay type: in vivo, healthy subjects; conditions: CVC 150 mg QD and PGZ 45 mg QD
Method: Plasma samples were collected prior to each dose and over 24 hours at the end of each treatment period. Cmax, Cmin, tmax, and AUC0-tau were determined using non-compartmental methods. Geometric means, GMRs and CIs were calculated.

[4] = Solubility of cenicriviroc mesylate; assay type: physicochemical
From the text: In one embodiment, the acid addition salt of cenicriviroc is cenicriviroc mesylate, e.g., (S)-8-[4-(2-Butoxyethoxy)phenyl]-1-isobutyl-N-(4-{[(1-propyl-1H-imidazol-5-yl)methyl]sulfinyl}phenyl)-1,2,3,4-tetrahydro-1-benzazocine-5-carboxamide monomethanesulfonoate. In one embodiment, the cenicriviroc mesylate is a crystalline material, such as a pale greenish-yellow crystalline powder.

O=C1Nc2ccc(Cl)cc2[C@@](C#CC2CC2)(C(F)(F)F)O1 [EFV, efavirenz, reference compound]
subjects with APRI 0.5-1.5 ([1]; Baseline): 4%
subjects with APRI <0.5 ([1]; Baseline): 96%
subjects with FIB-4 <1.45 ([1]; Baseline): 100%
subjects with APRI <0.5 ([1]; Week 24): 100%
subjects with APRI decreased 1 category from baseline ([1]; Week 24): 5%
subjects with FIB-4 <1.45 ([1]; Week 24): 100%
subjects with APRI <0.5 ([1]; Week 48): 100%
subjects with APRI decreased 1 category from baseline ([1]; Week 48): 6%
subjects with FIB-4 1.45-3.25 ([1]; Week 48): 6%
subjects with FIB-4 <1.45 ([1]; Week 48): 94%
plasma MCP-1 over time ([2]; CVC 100 mg and 200 mg, EFV, up to Week 48): remained at baseline values
D-dimer Changes from baseline at Week 24, Mean ([2]; EFV 600 mg): -53 ng/mL
D-dimer Changes from baseline at Week 24, Median ([2]; EFV 600 mg): -26 ng/mL
D-dimer Changes from baseline at Week 48, Mean ([2]; EFV 600 mg): -34 ng/mL
D-dimer Changes from baseline at Week 48, Median ([2]; EFV 600 mg): 0.0 ng/mL
Fibrinogen Changes from baseline at Week 24, Mean ([2]; EFV 600 mg): -28 mg/dL
Fibrinogen Changes from baseline at Week 24, Median ([2]; EFV 600 mg): -31 mg/dL
Fibrinogen Changes from baseline at Week 48, Mean ([2]; EFV 600 mg): -30 mg/dL
Fibrinogen Changes from baseline at Week 48, Median ([2]; EFV 600 mg): -22 mg/dL
IL-6 Changes from baseline at Week 24, Mean ([2]; EFV 600 mg): -8.72 pg/mL
IL-6 Changes from baseline at Week 24, Median ([2]; EFV 600 mg): 0.00 pg/mL
IL-6 Changes from baseline at Week 48, Mean ([2]; EFV 600 mg): -13.11 pg/mL
IL-6 Changes from baseline at Week 48, Median ([2]; EFV 600 mg): 0.00 pg/mL
MCP-1 Changes from baseline at Week 24, Mean ([2]; EFV 600 mg): -44 pg/mL
MCP-1 Changes from baseline at Week 24, Median ([2]; EFV 600 mg): -17 pg/mL
MCP-1 Changes from baseline at Week 48, Mean ([2]; EFV 600 mg): 4.2 pg/mL
MCP-1 Changes from baseline at Week 48, Median ([2]; EFV 600 mg): 33.6 pg/mL
hs-CRP Changes from baseline at Week 24, Mean ([2]; EFV 600 mg): -0.46 mg/dL
hs-CRP Changes from baseline at Week 24, Median ([2]; EFV 600 mg): -0.01 mg/dL
hs-CRP Changes from baseline at Week 48, Mean ([2]; EFV 600 mg): -0.71 mg/dL
hs-CRP Changes from baseline at Week 48, Median ([2]; EFV 600 mg): -0.03 mg/dL
sCD14 Changes from baseline Week 32, Mean ([2]; EFV 600 mg, original values): 480000 pg/mL
sCD14 Changes from baseline Week 32, Median ([2]; EFV 600 mg, original values): 170000 pg/mL
sCD14 Changes from baseline at Week 12, Mean ([2]; EFV 600 mg, original values): 90000 pg/mL
sCD14 Changes from baseline at Week 12, Median ([2]; EFV 600 mg, original values): 1.8e+07 pg/mL
sCD14 Changes from baseline at Week 24, Mean ([2]; EFV 600 mg, original values): 230000 pg/mL
sCD14 Changes from baseline at Week 24, Median ([2]; EFV 600 mg, original values): 130000 pg/mL
sCD14 Changes from baseline at Week 48, Mean ([2]; EFV 600 mg, original values): 640000 pg/mL
sCD14 Changes from baseline at Week 48, Median ([2]; EFV 600 mg, original values): 460000 pg/mL
sCD14 over 48 weeks of treatment (linear mixed-model analysis of repeat sCD14 analysis) ([2]; both CVC treatment arms, EFV arm): increase

CCc1ccc(CCOc2ccc(CC3SC(=O)NC3=O)cc2)nc1 (centres unmarked) [PGZ, Pioglitazone, reference compound]
Cmin on co-administration [3]: remained unchanged
steady-state Cmax and AUC0-tau on co-administration [3]: modest decrease

CCCCOCCOc1ccc(-c2ccc3c(c2)C=C(C(=O)Nc2ccc([S@@+]([O-])Cc4cncn4CCC)cc2)CCCN3CC(C)C)cc1 [cenicriviroc mesylate, (S)-8-[4-(2-Butoxyethoxy)phenyl]-1-isobutyl-N-(4-{[(1-propyl-1H-imidazol-5-yl)methyl]sulfinyl}phenyl)-1,2,3,4-tetrahydro-1-benzazocine-5-carboxamide monomethanesulfonoate]
solubility ([4]; 99.5% ethanol): sparingly soluble
solubility ([4]; acetonitrile, 1-octanol, tetrahydrofuran): slightly soluble
solubility ([4]; aqueous solution at pH 3): sparingly soluble
solubility ([4]; aqueous solution from pH 1 to 2): freely soluble
solubility ([4]; ethyl acetate and diethylether): practically insoluble
solubility ([4]; glacial acetic acid, methanol, benzyl alcohol, dimethylsulfoxide, N,N-dimethylformamide): freely soluble
solubility ([4]; pH 4 to 13 and in water): practically insoluble
solubility ([4]; pyridine and acetic anhydride): soluble
